# Patent publication US20070196421A1, “Soft tissue implants and drug combination compositions, and use thereof” (priority 2005, published 2007)
# How the values were obtained:
# [1] = test system: eosinophil activation; conditions: cited from earlier work
# [2] = test system: mast cells; conditions: cited from earlier work
# [3] = test system: joint swelling; assay: chronic in vivo model of inflammation / chronic arthritis model; conditions: agent alone (prednisolone at reduced dose)
# [4] = test system: AP1; assay: AP1 activation; assay type: cell-based
# [5] = test system: NFkB; assay: NFkB activation; assay type: cell-based
# [6] = test system: p38; assay: p38 activation; assay type: cell-based
# [7] = test system: TNF-α; assay: Rat carrageenan-induced paw edema model: TNF-α in paw tissue by ELISA; assay type: in vivo; conditions: 2.26 mg/kg
# Procedure: (§1) A dose-range finding study was performed to determine the anti-inflammatory activity of various ratios of methyl prednisolone acetate and amoxapine in a rat carrageenan-induced paw edema model. […] The molar ratio of methyl prednisolone acetate to amoxapine ranged from 1:1 to 1:300, using total doses of methyl prednisolone acetate of 0.01, 0.03 or 0.1 mg/kg.
# (§2) The test agent (a combination of methyl prednisolone acetate and amoxapine), vehicle control, or reference agents (methyl prednisolone acetate, amoxapine, or Depo-Medrol®) were administered in the left hind foot pad of rats. After 60 minutes, paw edema was induced by injection of 100 μl of 1% carrageenan in the same foot pad. The paw volume was measured with a water displacement plethysmometer immediately prior to test agent injection (T−1h), at the time of carrageenan injection (T0h), and at T6h. Animals were euthanized by carbon dioxide inhalation. Paw tissue samples were collected and flash frozen in liquid nitrogen. Samples were assayed for TNF-α by enzyme-linked immunoassay (ELISA).
# [8] = test system: GRE reporter plasmid in T cells; assay: transactivation of a transfected GRE reporter plasmid in T cells; assay type: cell-based
# [9] = test system: ERK; assay: ERK activation; assay type: cell-based
# [10] = test system: JNK; assay: JNK activation; assay type: cell-based
# [11] = test system: LPS-induced TNF-α production; assay: acute in vivo model of inflammation (LPS-induced TNF-α release); conditions: agent alone (prednisolone at reduced dose)
# [12] = test system: NFAT; assay: NFAT activation, translocation and transactivation; assay type: cell-based
# [13] = test system: carrageenan-induced paw edema; assay: Rat carrageenan-induced paw edema model: paw swelling; assay type: in vivo; conditions: 2.26 mg/kg, local injection in paw at T-1 hr, Tmax = 6 hrs
# Procedure: as §1, §2
# [14] = test system: glucocorticoid receptor; assay: glucocorticoid receptor trafficking (mechanism study); assay type: cell-based
# [15] = in vivo; cited from earlier work
# [16] = target: protein tyrosine phosphatase 1B (PTP1B) (Homo sapiens, UniProt P18031); conditions: cited from earlier work
# [17] = test system: phosphatases of regenerating liver (PRL); conditions: cited from earlier work
# [18] = test system: endo-exonuclease; conditions: cited from earlier work
# [19] = 200 mg/day orally; cited from earlier work
# [20] = water; cited from earlier work
# [21] = in vivo; cited from earlier work; remark: listed apart in the source
# [22] = test system: stromelysin (MMP-3) mRNA; assay: IL-1 induced stromelysin (MMP-3) mRNA expression in chondrocytes, Northern blot; conditions: 10^−5 M, 24 hours pretreatment, IL-1β 20 ng/ml
# [23] = test system: collagenase (MMP-1) mRNA; assay: IL-1 induced collagenase (MMP-1) mRNA expression in chondrocytes, Northern blot; conditions: 10^−5 M, 24 hours pretreatment, IL-1β 20 ng/ml
# [24] = test system: collagenase; assay: IL-1 induced collagenase RNA levels in chondrocytes (FIG. 1D); assay type: cell-based; conditions: pretreatment
# [25] = test system: AP-1 transcriptional activity; assay: IL-1 stimulated AP-1 transcriptional activity (AP-1 driven CAT reporter gene) in chondrocytes; assay type: cell-based; conditions: transfected chondrocytes, IL-1 50 ng/ml, 24 hours, paclitaxel 10^−7 to 10^−5 M
# Procedure: Chondrocytes were transfected with constructs containing an AP-1 driven CAT reporter gene, and stimulated with IL-1, IL-1 (50 ng/ml) was added and incubated for 24 hours in the absence and presence of paclitaxel at various concentrations. […] The data noted with an asterisk (*) have significance compared with IL-1-induced CAT activity according to a t-test, P<0.05. The results shown are representative of three independent experiments.
# [26] = test system: AP-1 DNA binding activity; assay: IL-1 induced AP-1 DNA binding activity, gel mobility shift assay of chondrocyte extracts; assay type: cell-based; conditions: chondrocyte lysates, pretreated 10^−7 to 10^−5 M for 24 hours, IL-1β 20 ng/ml
# Procedure: Binding activity was assayed with a radiolabeled human AP-1 sequence probe and gel mobility shift assay. Extracts from chondrocytes untreated or treated with various amounts of paclitaxel (10^−7 to 10^−5 M) followed by IL-1β (20 ng/ml) were incubated with excess probe on ice for 30 minutes, followed by non-denaturing gel electrophoresis. The “com” lane contains excess unlabeled AP-1 oligonucleotide. The results shown are representative of three independent experiments.
# [27] = test system: stromelysin; assay: IL-1 induced stromelysin RNA levels in chondrocytes (FIG. 1D); assay type: cell-based; conditions: pretreatment
# [28] = test system: AP-1; assay: IL-1 induced AP-1 binding activity in chondrocyte lysates (FIG. 1C); assay type: cell-based; conditions: lysates from chondrocytes pretreated with paclitaxel
# Sequence of protein tyrosine phosphatase 1B (PTP1B) (P18031 whole entry): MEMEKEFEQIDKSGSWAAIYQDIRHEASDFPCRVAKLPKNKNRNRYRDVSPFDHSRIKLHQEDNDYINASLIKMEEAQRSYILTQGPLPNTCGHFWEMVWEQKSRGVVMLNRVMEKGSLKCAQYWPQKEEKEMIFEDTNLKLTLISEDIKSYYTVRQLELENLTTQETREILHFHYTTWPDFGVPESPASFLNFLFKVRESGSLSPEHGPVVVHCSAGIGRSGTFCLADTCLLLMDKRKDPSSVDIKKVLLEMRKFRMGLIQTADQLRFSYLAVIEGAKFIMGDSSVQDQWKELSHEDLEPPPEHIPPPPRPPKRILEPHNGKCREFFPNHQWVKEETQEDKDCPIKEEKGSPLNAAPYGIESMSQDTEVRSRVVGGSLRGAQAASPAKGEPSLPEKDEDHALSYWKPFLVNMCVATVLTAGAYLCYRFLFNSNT
smiles,measurement,setting,value
"CCOC(=O)N1CCC(=C2c3ccc(Cl)cc3CCc3cccnc32)CC1 [loratadine, Loratadine]",inhibition of eosinophil activation,[1],inhibits
same,inhibition of mast cells,[2],inhibits
Clc1ccc2c(c1)C(N1CCNCC1)=Nc1ccccc1O2 [amoxapine],effect of the single agents in the chronic model,[3],modest or no benefit
same,AP1 activation,[4],partially inhibits
same,NFkB activation,[5],partially inhibits
same,p38 activation,[6],Inhibition
same,TNF-α ± SEM,[7],32.6 ± 10.1 pg/g
same,potentiation of prednisolone's ability to transactivate a GRE reporter plasmid,[8],does not potentiate
same,ERK activation,[9],unaffected
same,JNK activation,[10],Inhibition
same,effect of the single agents in the acute / LPS model,[11],modest or no benefit
same,"NFAT activation, translocation and transactivation",[12],block
same,Edema ± SEM,[13],not significantly different from the vehicle treatment
same,Edema ± SEM,[13]; listed as Amoxapine,38.1 ± 3.3%
same,glucocorticoid receptor trafficking,[14],does not promote
"O=C(Nc1ccc([N+](=O)[O-])cc1Cl)c1cc(Cl)ccc1O [Niclosamide, niclosamide]",toxicity in mammals,[15],very low toxicity
N=C(N)c1ccc(OCCCCCOc2ccc(C(=N)N)cc2)cc1 [pentamidine],inhibition of protein tyrosine phosphatase 1B (PTP1B),[16],effective inhibitor
same,inhibition of the oncogenic phosphatases of regenerating liver (PRL),[17],potent inhibitor
same,inhibition of the activity of endo-exonuclease,[18],inhibit
CC(=O)N1CCN(c2ccc(OCC3COC(Cn4ccnc4)(c4ccc(Cl)cc4Cl)O3)cc2)CC1 (centres unmarked) [ketoconazole],serum concentration,[19],about 3.2 micrograms
same,solubility in water (in words),[20],essentially insoluble
"CN(C)/N=N/c1[nH]cnc1C(N)=O [Dacarbazine, dacarbazine]",absorption from the GI tract,[21],poorly absorbed
CC(=O)O[C@H]1C(=O)[C@@]2(C)[C@H]([C@H](OC(=O)c3ccccc3)[C@]3(O)C[C@H](OC(=O)[C@H](O)[C@@H](NC(=O)c4ccccc4)c4ccccc4)C(C)=C1C3(C)C)[C@]1(OC(C)=O)CO[C@@H]1C[C@@H]2O [paclitaxel],stromelysin mRNA level,[22],complete inhibition
same,collagenase mRNA level,[23],complete inhibition
same,IL-1 induction of collagenase RNA levels,[24],can be inhibited
same,IL-1 induced AP-1 reporter gene CAT activity,[25],reduced IL-1 induced AP-1 reporter gene CAT activity
same,IL-1 induced AP-1 binding activity,[26],decreased
same,IL-1 induction of stromelysin RNA levels,[27],can be inhibited
same,IL-1 induced binding activity,[28],decreased
